Here are results for three molecules from patent US12221428B2, “Use of deuterated empathogens as therapeutic agents” (priority 2021, dated 2025).

One data set has as its target T1, HTR1B (Homo sapiens, UniProt P28222).
T1 construct: expressed in transfected cells
Briefly: Hit Hunter cAMP assay, HTR1B agonist mode. The format is cell-based.

In the next data set the target is T2, NET (Homo sapiens, UniProt P23975).
T2 construct: expressed in transfected cells
Description: Neurotransmitter Transporter Uptake Assay, NET blocker mode. Format: cell-based. The procedure:
Methods—Monoamine Transporter Assay: Neurotransmitter uptake via transporters was measured using the Neurotransmitter Transporter Uptake Assay Kit from Molecular Devices. Dopamine, norepinephrine or serotonin transporter activity in cells was detected using a homogeneous fluorescence based assay. Increased intracellular fluorescence intensity following uptake of biogenic amine neurotransmitters via transporters is measured and can be run in a kinetic or endpoint mode.
To determine percentage inhibition of neurotransmitter uptake via transporter, cell lines were expanded from freezer stocks, seeded into a multi-well microplate, and incubated at 37° C. Then, the compound was administered and the mix was incubated again. Following compound incubation, dye was added to the wells and the plate was re-incubated. Microplates were then transferred to a PerkinElmer Envision™ instrument for fluorescence signal detection.
Compound activity was analyzed using CBIS data analysis (ChemInnovation, CA). For blocker mode assays, percentage inhibition was calculated using the following formula: % Inhibition=100%×(1−(mean RLU of test sample−mean RLU of vehicle control)/(mean RLU of positive control−mean RLU of vehicle control)).

Another data set addresses T3, DAT (Homo sapiens, UniProt Q01959).
T3 construct: expressed in transfected cells
Description: Neurotransmitter Transporter Uptake Assay, DAT blocker mode. Format: cell-based.

A further data set concerns the target CYP2D6 (Homo sapiens, UniProt P10635). The settings on record: cited from earlier work.
For data set [1] the following is noted: cited from earlier work.
Data set [2] addresses T4, serotonin receptor 2B (HTR2B) (Homo sapiens, UniProt P41595).
T4 construct: expressed in transfected cells
Briefly: Calcium No Wash Plus calcium mobilization assay, HTR2B antagonist mode. Format: cell-based. Background: Calcium assays in cells follow changes in intracellular calcium, usually with a dye or a luminescent sensor.
Description: Methods—Calcium Mobilization: GPCR activity of serotonin receptor 2B (HTR2B), among others, was measured using the Calcium No Wash^Plus assay, which monitors calcium mobilization in cell lines expressing Gq-coupled GPCRs by loading a calcium-sensitive dye into cells.
Cell lines were expanded from freezer stocks and seeded into multi-well microplates. Then, the plates were incubated at 37° C. for an appropriate amount of time and loaded with Dye Loading buffer. To determine compound agonist activity, cells were incubated with the sample to induce a response, and HBSS/20 mM Hepes was added using a FLIPR Tetra (MDS). Activity was measured on a FLIPR Tetra. Calcium mobilization was monitored for 2 minutes.
To determine compound antagonist activity, cells were pre-incubated with the sample followed by an post-incubation administration of the compound with 3×EC80 agonist using FLIPR. Compound antagonist activity was measured on a FLIPR Tetra (MDS) and calcium mobilization was monitored for 2 minutes.
Compound activity was analyzed using CBIS data analysis suite (ChemInnovation, CA). For agonist mode assays, percentage activity was calculated using the following formula: % Activity=100%×(mean RFU of test sample−mean RFU of vehicle control)/(mean MAX RFU control ligand −mean RFU of vehicle control). […]

The target in data set [3] is T5, nicotinic acetylcholine receptor nAChR (a4/b2) (Homo sapiens, UniProt P17787+P43681).
T5 construct: expressed in transfected cells
T5 sequence (P43681 29-627 limits assumed): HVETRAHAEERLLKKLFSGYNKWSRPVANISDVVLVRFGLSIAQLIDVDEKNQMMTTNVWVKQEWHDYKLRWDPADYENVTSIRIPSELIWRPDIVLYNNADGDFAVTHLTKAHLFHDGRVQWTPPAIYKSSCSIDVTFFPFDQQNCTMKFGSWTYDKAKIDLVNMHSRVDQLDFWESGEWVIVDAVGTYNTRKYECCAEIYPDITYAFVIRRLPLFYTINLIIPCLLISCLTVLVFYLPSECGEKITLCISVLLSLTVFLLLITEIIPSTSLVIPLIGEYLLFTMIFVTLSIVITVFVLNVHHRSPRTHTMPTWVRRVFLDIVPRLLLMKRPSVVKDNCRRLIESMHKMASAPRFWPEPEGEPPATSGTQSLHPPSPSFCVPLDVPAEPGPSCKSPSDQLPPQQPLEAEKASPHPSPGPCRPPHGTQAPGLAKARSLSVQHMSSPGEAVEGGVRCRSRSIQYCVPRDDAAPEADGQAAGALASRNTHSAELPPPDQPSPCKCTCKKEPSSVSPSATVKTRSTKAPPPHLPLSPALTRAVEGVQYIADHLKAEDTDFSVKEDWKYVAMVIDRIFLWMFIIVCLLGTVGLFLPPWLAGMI
T5 sequence (P17787 26-502): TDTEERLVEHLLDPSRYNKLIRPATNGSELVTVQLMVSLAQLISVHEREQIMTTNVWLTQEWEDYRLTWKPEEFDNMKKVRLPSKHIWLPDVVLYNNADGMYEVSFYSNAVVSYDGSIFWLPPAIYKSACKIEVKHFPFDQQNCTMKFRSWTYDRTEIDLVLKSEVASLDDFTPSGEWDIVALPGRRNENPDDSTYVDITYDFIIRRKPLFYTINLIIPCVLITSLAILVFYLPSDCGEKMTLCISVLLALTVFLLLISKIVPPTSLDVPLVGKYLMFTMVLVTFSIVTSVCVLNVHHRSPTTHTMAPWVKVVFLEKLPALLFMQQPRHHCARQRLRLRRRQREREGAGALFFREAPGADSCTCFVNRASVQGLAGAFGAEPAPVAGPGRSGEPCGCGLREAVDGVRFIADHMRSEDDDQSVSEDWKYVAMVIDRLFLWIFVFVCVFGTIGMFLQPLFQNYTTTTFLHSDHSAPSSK
Briefly: FLIPR Membrane Potential ion channel assay, nAChR (a4/b2) blocker. Format: cell-based. The note with it: read-out: EC50/IC50. As for the experimental part:
Methods—Ion Channel Assay: Membrane potential changes were measured using the FLIPR® Membrane potential Assay Kit. A fluorescent indicator dye in combination with a quencher is used to reflect real-time membrane potential changes associated with ion channel activation and ion transporter proteins.
To determine agonist and antagonist activity, cell lines were expanded from freezer stocks, seeded into multi-well microplates, and incubated at 37° C. Cells were then loaded with dye and incubated again.
For agonist determination, cells were incubated with the sample a different dilutions to induce a response. For antagonist determination, cells were pre-incubated with the sample at different dilutions. Following dye administration, the sample was added to the cells in the presence of EC80 agonist and then re-incubated at room temperature in the dark.
Compound activity was analyzed using CBIS data analysis suite (ChemInnovation, CA). For agonist mode assays, percentage activity was calculated using the following formula: % Activity=100%×(mean RLU of test sample−mean RLU of vehicle control)/(mean MAX control ligand−mean RLU of vehicle control).
For antagonist mode assays, percentage inhibition was calculated using the following formula: % Inhibition=100%×(1−(mean RLU of test sample−mean RLU of vehicle control)/(mean RLU of EC80 control−mean RLU of vehicle control)).

For data set [4] the following is noted: cited from earlier work. This is another data set of the same source.

T1 sequence (P28222 whole entry, species assumed): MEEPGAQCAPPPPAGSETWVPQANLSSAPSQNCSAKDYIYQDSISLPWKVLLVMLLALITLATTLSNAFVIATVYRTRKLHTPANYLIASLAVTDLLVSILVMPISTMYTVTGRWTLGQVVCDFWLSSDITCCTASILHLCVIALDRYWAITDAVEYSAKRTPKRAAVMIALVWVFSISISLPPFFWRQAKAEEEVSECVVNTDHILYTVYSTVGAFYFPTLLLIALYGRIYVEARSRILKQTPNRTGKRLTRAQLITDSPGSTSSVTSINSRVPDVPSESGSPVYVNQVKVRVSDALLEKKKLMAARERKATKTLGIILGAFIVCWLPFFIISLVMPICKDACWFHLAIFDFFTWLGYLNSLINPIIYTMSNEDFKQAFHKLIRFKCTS
T3 sequence (Q01959 whole entry, species assumed): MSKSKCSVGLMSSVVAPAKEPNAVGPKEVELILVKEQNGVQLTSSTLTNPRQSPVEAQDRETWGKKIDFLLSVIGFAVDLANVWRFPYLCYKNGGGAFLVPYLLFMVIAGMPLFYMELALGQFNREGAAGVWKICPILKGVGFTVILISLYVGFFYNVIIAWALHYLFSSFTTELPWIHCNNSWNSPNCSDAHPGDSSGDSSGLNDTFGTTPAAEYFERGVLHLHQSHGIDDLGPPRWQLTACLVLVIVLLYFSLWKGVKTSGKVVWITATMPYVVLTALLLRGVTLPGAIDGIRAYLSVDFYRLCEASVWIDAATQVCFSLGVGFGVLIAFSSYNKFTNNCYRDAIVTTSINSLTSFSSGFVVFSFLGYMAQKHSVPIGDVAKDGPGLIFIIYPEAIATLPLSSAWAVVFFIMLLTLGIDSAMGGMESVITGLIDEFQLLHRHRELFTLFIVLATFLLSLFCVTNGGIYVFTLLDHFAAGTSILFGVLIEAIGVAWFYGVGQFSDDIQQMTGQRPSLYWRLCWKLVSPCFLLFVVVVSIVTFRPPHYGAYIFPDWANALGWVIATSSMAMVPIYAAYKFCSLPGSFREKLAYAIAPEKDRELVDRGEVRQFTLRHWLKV
T4 sequence (P41595 whole entry, species assumed): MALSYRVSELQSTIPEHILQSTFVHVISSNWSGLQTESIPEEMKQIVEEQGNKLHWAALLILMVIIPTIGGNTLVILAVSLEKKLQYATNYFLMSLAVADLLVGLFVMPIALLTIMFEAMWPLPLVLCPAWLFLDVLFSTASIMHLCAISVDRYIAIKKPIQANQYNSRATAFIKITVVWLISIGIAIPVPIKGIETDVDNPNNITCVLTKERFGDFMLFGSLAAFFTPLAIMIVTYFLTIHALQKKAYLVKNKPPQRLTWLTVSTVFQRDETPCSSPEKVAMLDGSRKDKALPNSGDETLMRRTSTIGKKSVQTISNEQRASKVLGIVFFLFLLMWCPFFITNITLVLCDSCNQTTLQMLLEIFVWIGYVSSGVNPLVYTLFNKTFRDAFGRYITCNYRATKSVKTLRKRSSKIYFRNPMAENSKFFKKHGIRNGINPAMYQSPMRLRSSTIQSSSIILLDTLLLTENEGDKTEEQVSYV
T2 sequence (P23975 whole entry): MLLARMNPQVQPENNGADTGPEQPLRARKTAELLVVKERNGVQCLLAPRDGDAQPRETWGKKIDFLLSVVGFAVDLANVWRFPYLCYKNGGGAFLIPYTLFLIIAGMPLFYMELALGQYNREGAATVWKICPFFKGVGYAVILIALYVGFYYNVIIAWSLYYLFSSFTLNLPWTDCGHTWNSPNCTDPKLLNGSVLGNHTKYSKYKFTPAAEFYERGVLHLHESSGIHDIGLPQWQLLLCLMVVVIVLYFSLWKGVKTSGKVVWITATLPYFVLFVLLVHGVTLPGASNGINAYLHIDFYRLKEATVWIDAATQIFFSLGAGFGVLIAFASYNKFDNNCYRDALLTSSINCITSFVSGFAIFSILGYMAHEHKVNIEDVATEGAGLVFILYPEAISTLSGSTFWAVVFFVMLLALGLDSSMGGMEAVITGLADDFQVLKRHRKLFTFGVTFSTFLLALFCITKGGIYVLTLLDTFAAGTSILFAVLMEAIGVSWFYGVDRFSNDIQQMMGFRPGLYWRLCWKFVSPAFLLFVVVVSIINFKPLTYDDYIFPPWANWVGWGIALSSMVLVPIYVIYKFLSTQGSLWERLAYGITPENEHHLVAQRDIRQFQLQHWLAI
Sequence of CYP2D6 (P10635 whole entry): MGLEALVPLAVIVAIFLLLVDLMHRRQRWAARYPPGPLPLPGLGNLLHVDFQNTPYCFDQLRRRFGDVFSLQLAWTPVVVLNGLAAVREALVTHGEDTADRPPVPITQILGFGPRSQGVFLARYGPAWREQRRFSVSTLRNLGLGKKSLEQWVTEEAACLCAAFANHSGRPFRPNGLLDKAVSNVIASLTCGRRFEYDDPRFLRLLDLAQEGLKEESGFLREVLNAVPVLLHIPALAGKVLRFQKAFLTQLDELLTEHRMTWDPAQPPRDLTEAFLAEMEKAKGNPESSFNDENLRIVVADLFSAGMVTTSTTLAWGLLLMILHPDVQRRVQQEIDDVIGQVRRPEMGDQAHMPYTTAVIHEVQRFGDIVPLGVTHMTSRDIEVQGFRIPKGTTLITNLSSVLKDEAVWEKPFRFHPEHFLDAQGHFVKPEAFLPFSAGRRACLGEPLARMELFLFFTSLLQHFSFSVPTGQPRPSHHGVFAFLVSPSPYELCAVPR
Description for HTR1B: Methods—cAMP: Activation of HTR1B and GRM2, among other targets, was determined using the Hit Hunter® cAMP assay. The assay monitors the activation of a GPCR via Gi and Gs secondary messenger signaling, using β-Gal as a functional reporter.
To determine agonistic activity at Gi/Gs, cells were expanded from freezer stocks, seeded into multi-well plates, and incubated at 37° C. prior to addition of a test compound. To determine Gi/Gs agonism, media was aspirated from cells and replaced with 15 μL 2:1 HBSS/10 mM HEPES:cAMP XS+Ab reagent. Concentrated (4×) test compound in assay buffer was added to cells and incubated at 37° C. or room temperature for 30 or 60 minutes. For Gi agonist activation, cells were incubated with EC80 forskolin in addition to a test compound. Vehicle concentration was 1%.
For Gs agonist mode assays, percentage activity was calculated using the following formula: % Activity=100%×(mean RLU of test sample−mean RLU of vehicle control)/(mean RLU of MAX control−mean RLU of vehicle control).
For Gi agonist mode assays, percentage activity was calculated using the following formula: % Activity=100%×(1−(mean RLU of test sample−mean RLU of MAX control)/(mean RLU of vehicle control−mean RLU of MAX control)).

In general, EC50 refers to the midpoint of the concentration-response curve. A higher EC50 goes with a less potent agent. On to `CNC(C)Cc1ccc2c(c1)OCO2` (stereo not drawn) [MDMA, 3,4-methylenedioxymethamphetamine], for which the EC50 at HTR1B is 4.71 µM. Besides, the IC50 is 2.49 µM against NET, 9.84 µM against DAT, 5.34 µM in data set [2] and 3.19 µM in data set [3]. At CYP2D6, the CYP2D6 inhibition entry was “inhibit CYP2D6”. The “efficacy in severe PTSD” value in data set [1] (MDMA-assisted therapy compared to therapy with inactive placebo) is “highly efficacious”. Moreover, the safety and tolerability result in data set [1] (individuals with severe PTSD, even with comorbidities) is “safe and well-tolerated”.
`[2H]C([2H])([2H])NC(C)Cc1ccc2c(c1)OCO2` (stereo not drawn) [MDMA-d3] gave an EC50 on HTR1B of 2.99 µM. The IC50 against NET was determined as 3.87 µM; against DAT it was 7.57 µM; in data set [2] it was 4.2 µM; in data set [3], 4.38 µM.
Consider `[2H]C1([2H])Oc2ccc(CC(C)NC)cc2O1` (stereo not drawn) [d2-MDMA], for which the interoceptive effects entry in data set [4] (deuterium substitution at the methylenedioxy ring moiety) is recorded as “does not impact MDMA's interoceptive effects”. Also, in data set [4] (in vivo), the hyperthermic effects entry is listed as “reduced potential for producing hyperthermic effects”.
